The source of these data is BindingDB's records for doi:10.1021/jm300416h (Taiho Pharmaceutical, 2012).

Assay [1] can be described thus: Inhibition of human dUTPase-mediated cell proliferation in HeLa S3 cells assessed as compound concentration required to reduce 50% of 1 uM of FdUrd T/C after 24 hrs by crystal violet staining.
The nature of assay [2]: Inhibition of human dUTPase-mediated cell proliferation in HeLa S3 cells after 72 hrs by crystal violet staining.

pEC50, pIC50: −log10 of the molar value.

By pEC50 is commonly meant −log10 of the EC50, conventionally taken in molar units. As to `C[C@@H](NS(=O)(=O)CC/C=C/Cn1ccc(=O)[nH]c1=O)c1cccc(OC2CCCC2)c1`, in assay [1], the pEC50 was 6.82. One may read the pIC50 as −log10 of the IC50, conventionally taken in molar units. Regarding `C[C@@H](NS(=O)(=O)CC/C=C/Cn1ccc(=O)[nH]c1=O)c1cccc(OCC2CC2)c1`, in assay [1], the pEC50 was 7.18. In addition, in assay [2], the pIC50 is 4.42. On to `CC(C)(CCCOCn1ccc(=O)[nH]c1=O)NS(=O)(=O)c1ccccc1`, for which, in assay [1], the pEC50 is 5.29. As for `CC(C)(NS(=O)(=O)c1ccccc1)c1ccc(Cn2ccc(=O)[nH]c2=O)cc1`, in assay [1], the pEC50 was 5.59.

As to `COc1cccc(S(=O)(=O)NC(C)(C)c2ccc(Cn3ccc(=O)[nH]c3=O)cc2)c1`, in assay [1], the pEC50 is 5.50. Still for that read-out and setting: the same measure for `CC(C)(NS(=O)(=O)c1cccc(OCC2CC2)c1)c1ccc(Cn2ccc(=O)[nH]c2=O)cc1`: 6.85; for `C[C@@H](NS(=O)(=O)CC/C=C/Cn1ccc(=O)[nH]c1=O)c1cccc(OCC(F)F)c1`: 7.02. Still for that read-out and setting: the same measure for `CC(C)(CC/C=C/Cn1ccc(=O)[nH]c1=O)NS(=O)(=O)c1ccccc1`: 5.59. Same read-out and setting: the same measure for `CC(C)(NS(=O)(=O)c1cccc(OC2CCCC2)c1)c1ccc(Cn2ccc(=O)[nH]c2=O)cc1`: 6.92; for `CC(C)(NS(=O)(=O)c1cccc(OCC(F)F)c1)c1ccc(Cn2ccc(=O)[nH]c2=O)cc1`: 7.00. In the case of `COc1cccc(S(=O)(=O)NC(C)(C)CC/C=C/Cn2ccc(=O)[nH]c2=O)c1`, the pEC50 in assay [1] was 6.35. The same measure, in the same setting: next, `CC(C)(CC/C=C/Cn1ccc(=O)[nH]c1=O)NS(=O)(=O)c1cccc(OC2CCCC2)c1`: 6.70; `CC(C)(CC/C=C/Cn1ccc(=O)[nH]c1=O)NS(=O)(=O)c1cccc(OCC(F)F)c1`: 7.31; `C[C@@H](NS(=O)(=O)c1ccc(Cn2ccc(=O)[nH]c2=O)cc1)c1cccc(OCC2CC2)c1`: 6.03.

As to `C[C@@H](NS(=O)(=O)c1ccc(Cn2ccc(=O)[nH]c2=O)cc1)c1cccc(OC2CCCC2)c1`, the pEC50 in assay [1] was 6.21. The same measure, in the same setting: next, `C[C@@H](NS(=O)(=O)c1ccc(Cn2ccc(=O)[nH]c2=O)cc1)c1cccc(OCC(F)F)c1`: 6.21.
